Laboratory results from patent US12723024B2 (priority 2021, dated 2026).
Like-named read-outs stand apart in the source and are kept apart here.

Columns and labels:
[1] = Thermogravimetric analysis (TGA) weight loss; format: physicochemical; details: salt screening sample, at the temperature given (80-200° C.)
Text: (§1) According to the salt screening results (see Table 4), totally 19 potential salt hits were identified. All the potential salt hits were further investigated by Differential Scanning Calorimetry (DSC), Thermogravimetric analysis (TGA), H-NMR, Ion chromatography (IC), Karl Fischer titration (KF), and Polarized Light Microscopy (PLM) to confirm their identity and evaluate their physicochemical properties as shown in Table 5 below.

[2] = ground manually with mortar and pestle for 5 min; XRPD
Protocol: Potential change of polymorph form and degree of crystallinity were evaluated by XRPD.

[3] = Thermogravimetric analysis (TGA) weight loss; format: physicochemical; details: large scale batch, at the temperature printed in the same cell (100-170° C.)
[4] = wetted with water or ethanol, ground, dried 10 min; XRPD
Protocol: Wet samples were ground gently with a mortar and pestle. Post granulation samples were dried under ambient condition for 10 min. Potential change of polymorph form and degree of crystallinity were evaluated by XRPD.

[5] = Dynamic vapor sorption (DVS) test at 25° C.; format: physicochemical; details: for Desorp. (%) / Sorp. (%): cycle 40-0-95-0-40% RH
Crystallinity by XRPD = format: physicochemical; details: large scale batch
Outline: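 Salt suspensions were centrifuged, and the recovered solids were analysed by XRPD for crystallinity.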

[6] = Salt screening (slurry crystallization); format: physicochemical; set-up: key to Salt screening result: (+) shows that a crystalline salt was formed; (−) physical mixtures; details: for Polymorph obtained in salt screening: XRPD; for Salt screening result: slurry 50° C. then 25° C.
[7] = Hygroscopicity (water uptake) of salt hits; format: physicochemical; details: salt screening sample
Text: as §1

[8] = listed as succinate salt Polymorph A

COc1cc(C(F)(F)F)c(OC)cc1[C@@H]1CCCNC1.O=C(O)CCC(=O)O [Succinate salt Polymorph A (anhydrate), succinic acid salt of (S)-3-(2,5-dimethoxy-4-(trifluoromethyl)phenyl)piperidine]
Weight loss (%) [1]: 2.1%
Change of polymorph form and degree of crystallinity [2]: No change in polymorph form and crystallinity was observed
Weight loss (%) at Temperature (° C.) [3]: 0.2 at %
Weight loss (%) at Temperature (° C.) [3, 8]: about 0.2%
Change of polymorph form and degree of crystallinity [4]: No change in polymorph form and crystallinity was observed
Desorp. (%) ([5]; 0% RH, 25° C.): 0.00%
Sorp. (%) ([5]; 0% RH, 25° C.): 0.06%
Desorp. (%) ([5]; 10% RH, 25° C.): 0.01%
Sorp. (%) ([5]; 10% RH, 25° C.): 0.06%
Desorp. (%) ([5]; 20% RH, 25° C.): 0.01%
Sorp. (%) ([5]; 20% RH, 25° C.): 0.07%
Water absorbed from 40% RH to 95% RH ([5]; 25° C.): about 0.21%
Desorp. (%) ([5]; 30% RH, 25° C.): 0.02%
Sorp. (%) ([5]; 30% RH, 25° C.): 0.07%
Desorp. (%) ([5]; 40% RH, 25° C.): 0.02%
Sorp. (%) ([5]; 40% RH, 25° C.): 0.07%
Desorp. (%) ([5]; 50% RH, 25° C.): 0.02%
Sorp. (%) ([5]; 50% RH, 25° C.): 0.09%
Desorp. (%) ([5]; 60% RH, 25° C.): 0.03%
Sorp. (%) ([5]; 60% RH, 25° C.): 0.08%
Desorp. (%) ([5]; 70% RH, 25° C.): 0.10%
Sorp. (%) ([5]; 70% RH, 25° C.): 0.09%
Desorp. (%) ([5]; 80% RH, 25° C.): 0.11%
Sorp. (%) ([5]; 80% RH, 25° C.): 0.10%
Desorp. (%) ([5]; 90% RH, 25° C.): 0.16%
Sorp. (%) ([5]; 90% RH, 25° C.): 0.14%
Desorp. (%) ([5]; 95% RH, 25° C.): 0.29%
Sorp. (%) ([5]; 95% RH, 25° C.): 0.29%
XRPD after DVS test ([5]; DVS at 25° C.): No form changes
Hygroscopicity ([5]; DVS at 25° C., grade in words): non-hygroscopic
Crystallinity (Crystallinity by XRPD): High
Crystallinity (Crystallinity by XRPD; [8]): high crystallinity
Polymorph obtained in salt screening ([6]; ACN): Polymorph A
Salt screening result ([6]; ACN): +
Polymorph obtained in salt screening ([6]; Acetone): Polymorph A
Salt screening result ([6]; Acetone): +
Polymorph obtained in salt screening ([6]; EtOH): Polymorph A
Salt screening result ([6]; EtOH): +
Hygroscopicity (water uptake % w/w) [7]: (~0.7%) % w/w
